Laboratory results reported in US11793822B2, “Uses of Pulsatilla Chinensis extract in preparing drug for treating viral and/or bacterial diseases” (SICHUAN INLU WEITE PHARMACEUTICAL TECHNOLOGY CO., LTD., priority 2018, dated 2023).

What was measured:
[1] = set-up: species or system dairy cows; settings: in vivo
Description: In addition, during the treatment of dairy cow mastitis, randomly selected the tested Pulsatilla Saponin B4 injection and entrusted the Sichuan Provincial Veterinary Drug Inspection Institute to conduct more than 200 antibiotic tests, and no antibiotic component was detected. […] Pulsatilla Saponin B4 has little effect on the immunoglobulin and inflammatory factors in the cow milk, thus can ensure the stability of the milk composition. In addition, since there is no residue, it will not affect the quality of fresh milk in dairy farms.

[2] = tested on: persistent clinical mastitis; assay: Treatment of persistent clinical mastitis (Test Example 3); assay type: in vivo, cows; settings: 60 mL intramuscular injection once a day, after 3 administrations
Experimental: Pulsatilla Saponin B4 injection prepared by the preparation method of Example 3 at a concentration of 50 mg/mL;
The test selected 8 existing cows suffering from clinical mastitis in the dairy farm of Shijiazhuang Tianquan Dairy Cows Co., Ltd. These 8 cows have been treated for about a month but have not been cured (2 of them were close to dry, i.e., almost no milk was produced). These 8 cows have been treated by farm veterinarians, the treatment drugs and methods include udder infusing Cefquinome Sulfate Intramammary Infusion, intravenous injecting cephalosporins injection, and gavage with Gongying San ( ? ), etc.
To study the effect of Pulsatilla Saponin B4 injection on persistent clinical mastitis and the effect of Pulsatilla Saponin B4 injection on latent mastitis.
In the test, the Pulsatilla Saponin B4 injection prepared by the preparation method of Example 3 was used to treat 6 cows with persistent clinical mastitis and 2 cows with persistent clinical mastitis and close to dry. No matter how many udder areas were inflamed, intramuscular injection (60 mL) was taken once a day.

## C=C(C)C1CC[C@]2(C(=O)O[C@@H]3O[C@H](CO[C@@H]4O[C@H](CO)[C@@H](O[C@@H]5O[C@@H](C)[C@H](O)[C@@H](O)[C@H]5O)[C@H](O)[C@H]4O)[C@@H](O)[C@H](O)C3O)CC[C@]3(C)[C@H](CC[C@@H]4[C@@]5(C)CC[C@H](O[C@@H]6OC[C@H](O)[C@H](O)[C@H]6O[C@@H]6O[C@@H](C)[C@H](O)[C@@H](O)[C@H]6O)C(C)(CO)[C@@H]5CC[C@]43C)[C@H]12 (stereo partly drawn) [Pulsatilla Saponin B4]
[1]
  Effect on the immunoglobulin and inflammatory factors in the cow milk: little effect
[2]; 2 cows close to dry
  Treatment result of cows with persistent clinical mastitis close to dry: not effective
[2]; 6 cows treated about a month but not cured
  Treatment result of cows with persistent clinical mastitis: four cows were cured, one cow improved significantly, and one cow showed no significant effect
